Assay results as given in patent US6596545B1, “Microdevices for screening biomolecules” (priority 1998, dated 2003).

How the values were obtained:
Assay type in all cases: biochemical
[1] = target: L10R HIV protease variant (Human immunodeficiency virus type 1 group M subtype B, UniProt P04585, L498R); conditions: substrate Dns-SQNYPIVW, pH 5.5
Experimental: (§1) HIV protease variants, in the form of HIV-GST-K6, and GST-K6 are immobilized to the aminoreactive monolayer surface of the microchannel device (see Example 4, above). HIV-GST-K6 and GST-K6 are diluted to concentrations of 1 μg/ml in 25 mM HEPES buffer (pH 7.5) containing 150 mM NaCl. First, 50 μl of protein-free buffer is transferred through the channels to hydrate the monolayer surface. After 5 min of incubation, 10 μl of the corresponding protein solutions are flushed through the channels to guarantee total replacement with protein-containing solution. Immobilization is finished after 30 min at room temperature. The channels are rinsed with 50 μl immobilization buffer and subjected to analysis. […] Ultrapure water with a resistance of 18 MΩcm is generally used for all aqueous buffers (purified by passage through a Barnstead Nanopure® system).
(§2) HIV protease requires at least a heptapeptide substrate (Moore et al., Biochem. Biophys. Res. Commun., 1989, 159:420). To analyze the activity of the different HIV variants, a continuous assay based on intra-molecular fluorescence resonance energy transfer (FRET) is used. […] Excitation of Trp is at […], and emission of Dns is at 575 nm. Cleavage of the peptide at the Tyr-Pro bond reduces the Dns emission and increases Trp emission at 360 nm. The modified heptapeptide; Dns-[…] is prepared as described (Geoghegan et al.) and analyzed by amino acid analysis, nuclear magnetic resonance and mass spectrometry. The purity is checked by HPLC analysis using a Vydac C-4 column and an acetonitrile gradient in 0.1% TFA. In order to test the activity of all the HIV variants described above, each microchannel with an immobilized HIV variant (see Example 6) is filled with 20 μM of Dns-[…] in 50 mM sodium acetate, pH 5.5, 13% glycerol, 10 mM DTT. Addition of the substrate to the immobilized proteins leads to time-dependent intensity changes in the fluorescence emission spectrum. […] To control for changes in background fluorescence, GST-K6 fusion protein is measured in parallel.
(§3) Competition assays can be carried out to test the specificity of the proteolysis by the HIV variants.

[2] = target: HIV protease A71V variant (Human immunodeficiency virus type 1 group M subtype B, UniProt P04585, A559V/P588I); conditions: substrate Dns-SQNYPIVW, pH 5.5
Experimental: as §1, §2, §3

[3] = target: HIV protease L63P variant (Human immunodeficiency virus type 1 group M subtype B, UniProt P04585, L551P); conditions: substrate Dns-SQNYPIVW, pH 5.5
Experimental: as §1, §2, §3

[4] = target: HIV protease 184V variant (Human immunodeficiency virus type 1 group M subtype B, UniProt P04585, I572V/P588I); conditions: substrate Dns-SQNYPIVW, pH 5.5
Experimental: as §1, §2, §3

[5] = target: HIV protease V82F variant (Human immunodeficiency virus type 1 group M subtype B, UniProt P04585, V570F); conditions: substrate Dns-SQNYPIVW, pH 5.5
Experimental: as §1, §2, §3

[6] = target: HIV protease M461 variant (Human immunodeficiency virus type 1 group M subtype B, UniProt P04585, M534I); conditions: substrate Dns-SQNYPIVW, pH 5.5
Experimental: as §1, §2, §3

[7] = system: HIV variants (HIV protease variants, HIV-GST-K6); assay: FRET protease activity assay in microchannels, immobilized HIV protease variants; conditions: all immobilized variants other than G48V or L90M; substrate Dns-SQNYPIVW 20 μM, pH 5.5
Experimental: HIV protease variants, in the form of HIV-GST-K6, and GST-K6 are immobilized to the aminoreactive monolayer surface of the microchannel device (see Example 4, above). HIV-GST-K6 and GST-K6 are diluted to concentrations of 1 μg/ml in 25 mM HEPES buffer (pH 7.5) containing 150 mM NaCl. First, 50 μl of protein-free buffer is transferred through the channels to hydrate the monolayer surface. After 5 min of incubation, 10 μl of the corresponding protein solutions are flushed through the channels to guarantee total replacement with protein-containing solution. Immobilization is finished after 30 min at room temperature. The channels are rinsed with 50 μl immobilization buffer and subjected to analysis. […]
HIV protease requires at least a heptapeptide substrate (Moore et al., Biochem. Biophys. Res. Commun., 1989, 159:420). To analyze the activity of the different HIV variants, a continuous assay based on intra-molecular fluorescence resonance energy transfer (FRET) is used. […] The modified heptapeptide; Dns-SQNYPIVW is prepared as described (Geoghegan et al.) and analyzed by amino acid analysis, nuclear magnetic resonance and mass spectrometry. […] Addition of the substrate to the immobilized proteins leads to time-dependent intensity changes in the fluorescence emission spectrum. […] To control for changes in background fluorescence, GST-K6 fusion protein is measured in parallel. […]

Structure (SMILES)	decrease of protease activity [1]	block of protease activity [2]	block of protease activity [3]	block of protease activity [4]	block of protease activity [5]	block of protease activity [6]	inhibition of HIV variants [7]
CC(C)(C)NC(=O)[C@@H]1CN(Cc2cccnc2)CCN1C[C@@H](O)C[C@@H](Cc1ccccc1)C(=O)N[C@H]1c2ccccc2C[C@H]1O [Indinavir]	not able to decrease the activity	the A71V variant is not affected					
CC(C)c1nc(CN(C)C(=O)N[C@H](C(=O)N[C@@H](Cc2ccccc2)C[C@H](O)[C@H](Cc2ccccc2)NC(=O)OCc2cncs2)C(C)C)cs1 [Ritonavir]		unable to block the activity	unable to block the activity	unable to block the activity	unable to block the activity	unable to block the activity	
CC(C)(C)NC(=O)[C@@H]1C[C@@H]2CCCC[C@@H]2CN1C[C@@H](O)[C@H](Cc1ccccc1)NC(=O)[C@H](CC(N)=O)NC(=O)c1ccc2ccccc2n1 [Sequinavir]							will inhibit all the HIV variants except those containing either the G48V or the L90M mutation
